# In the Kinase Knowledgebase extract (Sharma et al. 2016):
# Tests used:
# MAPK14 (rat) = details: pbmc
# MAPK14 (human) [1] = target: MAPK14 (human) (UniProt Q16539); details: pbmc
# MAPK14 (human) [2] = target: MAPK14 (human) (UniProt Q16539); details: pbmc; remark: listed apart in the source
# MAPK14 (human) [3] = target: MAPK14 (human) (UniProt Q16539); details: pbmc; remark: listed apart in the source
# MAPK14 = MAPK14 (UniProt Q16539)
# MAPK14 (human) [4] = target: MAPK14 (human) (UniProt Q16539); details: pbmc; remark: listed apart in the source
# MAPK14 (dog) = details: pbmc
# [5] = target: MAPK14, Q16539 [p38 beta Inhibition]
# MAPK14, Q16539 [p38 beta Inhibition], sequence (Q16539 whole entry, looked up, change not shown): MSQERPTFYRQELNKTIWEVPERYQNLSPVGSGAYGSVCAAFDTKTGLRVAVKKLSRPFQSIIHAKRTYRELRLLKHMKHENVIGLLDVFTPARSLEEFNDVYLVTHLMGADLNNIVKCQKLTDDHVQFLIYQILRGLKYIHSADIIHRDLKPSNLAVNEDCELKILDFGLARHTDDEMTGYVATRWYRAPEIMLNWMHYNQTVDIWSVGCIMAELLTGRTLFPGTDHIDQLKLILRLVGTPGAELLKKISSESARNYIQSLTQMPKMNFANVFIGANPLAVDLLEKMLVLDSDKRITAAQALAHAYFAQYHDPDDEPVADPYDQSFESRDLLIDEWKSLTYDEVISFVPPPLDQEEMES
# MAPK14 (human), sequence (Q16539 whole entry, looked up): as the sequence (Q16539 whole entry, looked up, change not shown) above
# MAPK14, sequence (Q16539 whole entry, looked up): as the sequence (Q16539 whole entry, looked up, change not shown) above
smiles,measurement,setting,value
OCCC#Cc1nc(-c2ccc(F)cc2)c(-c2ccncc2)n1CCCc1ccccc1,IC50,MAPK14 (rat),0.58 µM
same,IC50,MAPK14 (human) [1],0.003 µM
same,IC50,MAPK14 (human) [2],0.013 µM
same,IC50,MAPK14 (human) [3],0.011 µM
same,IC50,MAPK14,1 µM
same,IC50,MAPK14 (human) [4],0.006 µM
same,IC50,MAPK14 (dog),0.015 µM
same,IC50,[5],11 µM
